Data as given in US7511061B2, “Triazoles as farnesyl transferase inhibitors” (Janssen Pharmaceutica N.V., priority 1999, dated 2009).
pIC50: −log10 of the molar value.

Assays:
[1] = system: HeLa cells; assay type: cell-based; settings: human, 7 days
Description: (§1) The percent protection against cytopathology caused by viruses (antiviral activity or IC50) achieved by tested compounds and their cytotoxicity (CC50) were both calculated from dose-response curves. The selectivity of the antiviral effect is represented by the selectivity index (SI), calculated by dividing the CC50 (cytotoxic dose for 50% of the cells) by the IC50 (antiviral activity for 50% of the cells).
(§2) Automated tetrazolium-based […] assays were used for determination of IC50 and CC50 of test compounds. Flat-bottom, 96-well plastic microtiter trays were filled with 180 μl of Eagle's Basal Medium, supplemented with 5% FCS (0% for FLU) and 20 mM Hepes buffer. Subsequently, stock solutions (7.8× final test concentration) of compounds were added in 45 μl volumes to a series of triplicate wells so as to allow simultaneous evaluation of their effects on virus- and mock-infected cells. Five five-fold dilutions were made directly in the microtiter trays using a robot system. Untreated virus controls, and HeLa cell controls were included in each test. Approximately 100 TCID50 of Respiratory Syncytial Virus was added to two of the three rows in a volume of 50 μl. The same volume of medium was added to the third row to measure the cytotoxicity of the compounds at the same concentrations as those used to measure the antiviral activity. After two hours of incubation, a suspension (4×10^5 cells/ml) of HeLa cells was added to all wells in a volume of 50 μl. The cultures were incubated at 37° C. in a 5% CO2 atmosphere. Seven days after infection the cytotoxicity and the antiviral activity was examined spectrophotometrically. To each well of the microtiter tray, 25 μl of a solution of MTT (3-(4,5-dimethylthiazol-2-yl)-2,5-diphenyltetrazolium bromide) was added. The trays were further incubated at 37° C. for 2 hours, after which the medium was removed from each cup. Solubilization of the formazan crystals was achieved by adding 100 μl 2-propanol. Complete dissolution of the formazan crystals were obtained after the trays have been placed on a plate shaker for 10 min. Finally, the absorbances were read in an eight-channel computer-controlled photometer (Multiskan MCC, Flow Laboratories) at two wavelengths (540 and 690 nm). The absorbance measured at 690 nm was automatically subtracted from the absorbance at 540 nm, so as to eliminate the effects of non-specific absorption.

[2] = system: Respiratory Syncytial Virus; assay: In vitro screening for activity against Respiratory Syncytial Virus (MTT assay, protection against cytopathology); assay type: cell-based; settings: for SI (selectivity index, CC50 divided by IC50): RSV, HeLa cells; for pIC50: human respiratory syncytial virus, 168 h, RSV-infected HeLa cells, seven days after infection, MTT, read-out: IC50 (antiviral activity)
Description: as §1, §2

[3] = target: farnesyl protein transferase (FPTase) (Homo sapiens, UniProt P49354+P49356); assay: In vitro assay for inhibition of farnesyl protein transferase; assay type: biochemical; settings: test dose of 10^−7 M
Procedure: An in vitro assay for inhibition of farnesyl transferase was performed essentially as described in WO 98/40383, pages 33-34.

Row | Structure (SMILES) | inhibition at 0.1 µM [3] [%] | further results
1 | Cc1ccc(CCN(Cc2ccc3ccccc3n2)Cc2nncn2Cc2ccc(C#N)cc2)cc1 [compound 46] | – | CC50 (cytotoxic dose for 50% of the cells) [1]: 7060 nM; SI (selectivity index, CC50 divided by IC50) [2]: 758; pIC50 [2]: 7.06
2 | COC(=O)c1ccc(Cn2cnnc2CN(CCc2ccc(Br)cc2)Cc2ccc3ccccc3n2)cc1 [compound 90] | – | CC50 (cytotoxic dose for 50% of the cells) [1]: 7590 nM; SI (selectivity index, CC50 divided by IC50) [2]: 1988; pIC50 [2]: 7.59
3 | Brc1ccc(CCN(Cc2ccc3ccccc3n2)Cc2nncn2Cc2ccc(Br)cc2)cc1 [compound 92] | – | CC50 (cytotoxic dose for 50% of the cells) [1]: 6820 nM; SI (selectivity index, CC50 divided by IC50) [2]: 147; pIC50 [2]: 6.82
4 | Fc1ccc(Cn2cnnc2CN(CCc2ccc(Br)cc2)Cc2ccc3ccccc3n2)cc1 [compound 97] | – | CC50 (cytotoxic dose for 50% of the cells) [1]: 7100 nM; SI (selectivity index, CC50 divided by IC50) [2]: 322; pIC50 [2]: 7.10
5 | Brc1ccc(CCN(Cc2ccc3ccccc3n2)Cc2nncn2Cc2ccccc2)cc1 [compound 101] | – | CC50 (cytotoxic dose for 50% of the cells) [1]: 6890 nM; SI (selectivity index, CC50 divided by IC50) [2]: 196; pIC50 [2]: 6.89
6 | N#Cc1cccc(Cn2cnnc2CN(CCc2ccc(Br)cc2)Cc2ccc3ccccc3n2)c1 [compound 102] | – | CC50 (cytotoxic dose for 50% of the cells) [1]: 7080 nM; SI (selectivity index, CC50 divided by IC50) [2]: 793; pIC50 [2]: 7.08
7 | N#Cc1ccc(Cn2cnnc2CN(CCc2ccc(Cl)cc2Cl)Cc2ccc3ccccc3n2)cc1 [compound 114] | – | CC50 (cytotoxic dose for 50% of the cells) [1]: 6930 nM; SI (selectivity index, CC50 divided by IC50) [2]: 337; pIC50 [2]: 6.93
8 | N#Cc1ccc(Cn2cnnc2CN(CCc2ccc(Br)cc2)Cc2ccc3cccc(O)c3n2)cc1 [compound 155] | – | CC50 (cytotoxic dose for 50% of the cells) [1]: 6800 nM; SI (selectivity index, CC50 divided by IC50) [2]: 99; pIC50 [2]: 6.80
9 | Clc1ccc(Cn2cnnc2CN(CCc2ccc(Br)cc2)Cc2ccc3ccccc3n2)cc1 [compound 157] | – | CC50 (cytotoxic dose for 50% of the cells) [1]: 7030 nM; SI (selectivity index, CC50 divided by IC50) [2]: 272; pIC50 [2]: 7.03
10 | N#Cc1ccc(Cn2cnnc2CN(Cc2ccc(F)cc2F)C(=O)c2ccc(-c3ccc(F)c(Cl)c3)o2)cc1 [compound 272] | ≥ 10 | –
11 | O=C(c1ccc2ccccc2n1)N(Cc1ccc(F)cc1F)Cc1nncn1Cc1ccc([N+](=O)[O-])cc1 [compound 273] | ≥ 10 | –
12 | N#Cc1ccc(Cn2cnnc2CN(Cc2ccc(F)cc2F)C(=O)c2ccc(-c3ccc(F)cc3)o2)cc1 [compound 274] | ≥ 10 | –
13 | N#Cc1ccc(Cn2cnnc2CN(Cc2cccc(Cl)c2)C(=O)c2ccc3ccccc3n2)cc1 [compound 275] | ≥ 10 | –
14 | N#Cc1ccc(Cn2cnnc2CN(CCc2ccc(F)cc2)C(=O)c2ccc3ccccc3n2)cc1 [compound 276] | ≥ 10 | –
15 | Cc1cc(C(=O)N(Cc2ccc(F)cc2F)Cc2nncn2Cc2ccc(C#N)cc2)ccc1Br [compound 277] | ≥ 10 | –
16 | N#Cc1ccc(Cn2cnnc2CN(Cc2ccc(F)cc2F)C(=O)c2cccc(-c3ccsc3)n2)cc1 [compound 278] | ≥ 10 | –
17 | N#Cc1ccc(Cn2cnnc2CN(Cc2ccc(F)cc2F)C(=O)c2cccc(Cl)n2)cc1 [compound 279] | ≥ 10 | –
18 | N#Cc1ccc(Cn2cnnc2CN(Cc2ccccc2OC(F)(F)F)C(=O)c2ccc3ccccc3n2)cc1 [compound 280] | ≥ 10 | –
19 | N#Cc1ccc(Cn2cnnc2CN(Cc2ccc(F)cc2F)C(=O)c2ccc(-c3ccccc3C(F)(F)F)o2)cc1 [compound 281] | ≥ 10 | –
20 | C/C(=C\c1ccccc1)C(=O)N(Cc1ccc(F)cc1F)Cc1nncn1Cc1ccc(C#N)cc1 [compound 282] | ≥ 10 | –
21 | N#Cc1ccc(Cn2cnnc2CN(Cc2ccc(F)cc2F)C(=O)c2cccc(-c3cc(Cl)cc(Cl)c3)c2)cc1 [compound 283] | ≥ 10 | –
22 | N#Cc1ccc(Cn2cnnc2CN(Cc2ccc(Cl)cc2Cl)C(=O)c2ccc3ccccc3n2)cc1 [compound 284] | ≥ 10 | –
23 | N#Cc1ccc(Cn2cnnc2CN(Cc2ccc(F)cc2F)C(=O)c2cccc(Br)n2)cc1 [compound 285] | ≥ 10 | –
24 | N#Cc1ccc(Cn2cnnc2CN(Cc2ccc(Cl)c(Cl)c2)C(=O)c2ccc3ccccc3n2)cc1 [compound 286] | ≥ 10 | –
25 | Cc1ccc(C(=O)N(Cc2ccc(F)cc2F)Cc2nncn2Cc2ccc(C#N)cc2)cc1-c1ccsc1 [compound 288] | ≥ 10 | –

Row | Structure (SMILES) | inhibition at 0.1 µM [3] [%] | further results
26 | N#Cc1ccc(Cn2cnnc2CN(Cc2ccc(F)cc2F)C(=O)C2=Cc3ccccc3OC2)cc1 [compound 289] | ≥ 10 | –
27 | COc1cc(Cn2cnnc2CN(Cc2ccc(F)cc2F)C(=O)c2ccc3ccccc3n2)ccc1[N+](=O)[O-] [compound 290] | ≥ 10 | –
28 | N#Cc1ccc(Cn2cnnc2CN(Cc2ccc(F)cc2F)C(=O)c2cc(Br)cc3c2OCC3)cc1 [compound 291] | ≥ 10 | –
29 | N#Cc1ccc(Cn2cnnc2CN(Cc2ccc(F)cc2F)C(=O)c2ccc(-c3cccc(C(F)(F)F)c3)o2)cc1 [compound 292] | ≥ 10 | –
30 | N#Cc1ccc(Cn2cnnc2CN(Cc2ccc(F)cc2F)C(=O)c2ccc(OC(F)(F)F)c(Cl)c2)cc1 [compound 293] | ≥ 10 | –
31 | N#Cc1ccc(Cn2cnnc2CN(Cc2ccccc2Cl)C(=O)c2ccc3ccccc3n2)cc1 [compound 294] | ≥ 10 | –
32 | N#Cc1ccc(Cn2cnnc2CN(Cc2ccc(F)cc2F)C(=O)c2ccc3ccccc3n2)nc1 [compound 295] | ≥ 10 | –
33 | N#Cc1ccc(Cn2cnnc2CN(Cc2ccc(F)cc2F)C(=O)c2ccc(-c3cc(Cl)cc(Cl)c3)o2)cc1 [compound 296] | ≥ 10 | –
34 | N#Cc1ccc(Cn2cnnc2CN(Cc2ccc(F)cc2)C(=O)c2ccc3ccccc3n2)cc1 [compound 297] | ≥ 10 | –
35 | COc1cc(C(=O)N(Cc2ccc(F)cc2F)Cc2nncn2Cc2ccc(C#N)cc2)nc2ccccc12 [compound 298] | ≥ 10 | –
36 | N#Cc1ccc(Cn2cnnc2CN(Cc2ccc(F)cc2F)C(=O)c2cc3ccccc3o2)cc1 [compound 299] | ≥ 10 | –
37 | N#Cc1ccc(Cn2cnnc2CN(Cc2ccc(F)cc2F)C(=O)c2ccc3ccccc3n2)cc1 [compound 300] | ≥ 10 | –
38 | N#Cc1ccc(Cn2cnnc2CN(Cc2ccc(F)cc2F)C(=O)c2nc3ccccc3nc2O)cc1 [compound 301] | ≥ 10 | –
39 | N#Cc1ccc(Cn2cnnc2CN(Cc2ccc(C(F)(F)F)cc2)C(=O)c2ccc3ccccc3n2)cc1 [compound 302] | ≥ 10 | –
40 | N#Cc1ccc(Cn2cnnc2CN(Cc2c(F)cccc2F)C(=O)c2ccc3ccccc3n2)cc1 [compound 303] | ≥ 10 | –
41 | N#Cc1ccc(Cn2cnnc2CN(Cc2ccc(Br)cc2)C(=O)c2ccc3ccccc3n2)cc1 [compound 304] | ≥ 10 | –
42 | N#Cc1ccc(Cn2cnnc2CN(Cc2cc(F)cc(F)c2)C(=O)c2ccc3ccccc3n2)cc1 [compound 305] | ≥ 10 | –
43 | N#Cc1ccc(Cn2cnnc2CN(Cc2ccccc2F)C(=O)c2ccc3ccccc3n2)cc1 [compound 306] | ≥ 10 | –
44 | N#Cc1ccc(Cn2cnnc2CN(Cc2cccc(F)c2F)C(=O)c2ccc3ccccc3n2)cc1 [compound 307] | ≥ 10 | –
45 | Cc1ccc(C(=O)N(Cc2ccc(F)cc2F)Cc2nncn2Cc2ccc(C#N)cc2)cc1-c1cc(Cl)cc(Cl)c1 [compound 308] | ≥ 10 | –
46 | Cc1ccc(C(=O)N(Cc2ccc(F)cc2F)Cc2nncn2Cc2ccc(C#N)cc2)cc1Br [compound 309] | ≥ 10 | –
47 | Cc1nnc(CN(Cc2ccc(F)cc2F)C(=O)c2ccc3ccccc3n2)n1Cc1ccc(C#N)cc1 [compound 311] | ≥ 10 | –
48 | Cc1nnc(CN(Cc2ccc(F)cc2F)C(=O)c2ccc3ccccc3n2)n1-c1ccc(C#N)cc1 [compound 313] | ≥ 10 | –
49 | Cc1ccc(Br)cc1C(=O)N(Cc1ccc(F)cc1F)Cc1nncn1Cc1ccc(C#N)cc1 [compound 314] | ≥ 10 | –
50 | N#Cc1ccc(Cn2cnnc2CN(Cc2ccc(F)cc2F)C(=O)c2ccc3ccccc3c2)cc1 [compound 315] | ≥ 10 | –
